In ChEMBL document CHEMBL3351520, “Discovery of lesser known flavones as inhibitors of NF-κB signaling in MDA-MB-231 breast cancer cells--A SAR study” (Bioorg Med Chem Lett, 2014):
Calls of active or inactive are those of the source. No cut-off for these calls is given here.

Assays:
[1] = target: T1, Nuclear factor NF-kappa-B complex (Homo sapiens) (UniProt Q00653+P19838+Q04206); experiment: Inhibition of non-stimulated NF-kappaB signaling (unknown origin) expressed in MDA-MB-231 cells at 5 uM incubated for 16 hrs by luciferase reporter gene assay; format: cell-based
T1 sequence (P19838 whole entry, looked up): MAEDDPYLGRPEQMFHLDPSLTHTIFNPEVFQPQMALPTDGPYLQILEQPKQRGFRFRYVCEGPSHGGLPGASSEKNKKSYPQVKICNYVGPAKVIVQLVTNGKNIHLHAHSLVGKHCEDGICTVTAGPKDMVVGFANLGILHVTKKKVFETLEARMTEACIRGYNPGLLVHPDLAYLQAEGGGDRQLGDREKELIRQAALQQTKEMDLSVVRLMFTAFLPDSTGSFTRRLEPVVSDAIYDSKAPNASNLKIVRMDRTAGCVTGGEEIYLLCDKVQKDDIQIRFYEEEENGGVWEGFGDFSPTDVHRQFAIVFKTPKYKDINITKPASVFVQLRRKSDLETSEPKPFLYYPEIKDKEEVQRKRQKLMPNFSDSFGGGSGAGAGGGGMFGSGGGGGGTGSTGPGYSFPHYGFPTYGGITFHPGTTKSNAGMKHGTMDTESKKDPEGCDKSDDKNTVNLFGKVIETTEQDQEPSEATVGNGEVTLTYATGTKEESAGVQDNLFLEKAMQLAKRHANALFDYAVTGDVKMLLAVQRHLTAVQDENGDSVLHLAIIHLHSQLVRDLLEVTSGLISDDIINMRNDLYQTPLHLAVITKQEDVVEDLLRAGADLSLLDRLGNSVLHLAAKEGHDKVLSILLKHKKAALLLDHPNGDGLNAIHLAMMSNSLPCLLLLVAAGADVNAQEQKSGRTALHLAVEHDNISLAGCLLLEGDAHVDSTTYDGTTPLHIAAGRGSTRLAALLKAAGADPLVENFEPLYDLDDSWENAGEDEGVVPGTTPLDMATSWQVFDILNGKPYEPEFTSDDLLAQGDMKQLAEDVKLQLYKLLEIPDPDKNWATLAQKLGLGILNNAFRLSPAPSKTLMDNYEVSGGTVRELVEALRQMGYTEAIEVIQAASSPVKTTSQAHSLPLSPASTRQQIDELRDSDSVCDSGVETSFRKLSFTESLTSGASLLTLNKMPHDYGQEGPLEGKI
T1 sequence (Q00653 whole entry, looked up): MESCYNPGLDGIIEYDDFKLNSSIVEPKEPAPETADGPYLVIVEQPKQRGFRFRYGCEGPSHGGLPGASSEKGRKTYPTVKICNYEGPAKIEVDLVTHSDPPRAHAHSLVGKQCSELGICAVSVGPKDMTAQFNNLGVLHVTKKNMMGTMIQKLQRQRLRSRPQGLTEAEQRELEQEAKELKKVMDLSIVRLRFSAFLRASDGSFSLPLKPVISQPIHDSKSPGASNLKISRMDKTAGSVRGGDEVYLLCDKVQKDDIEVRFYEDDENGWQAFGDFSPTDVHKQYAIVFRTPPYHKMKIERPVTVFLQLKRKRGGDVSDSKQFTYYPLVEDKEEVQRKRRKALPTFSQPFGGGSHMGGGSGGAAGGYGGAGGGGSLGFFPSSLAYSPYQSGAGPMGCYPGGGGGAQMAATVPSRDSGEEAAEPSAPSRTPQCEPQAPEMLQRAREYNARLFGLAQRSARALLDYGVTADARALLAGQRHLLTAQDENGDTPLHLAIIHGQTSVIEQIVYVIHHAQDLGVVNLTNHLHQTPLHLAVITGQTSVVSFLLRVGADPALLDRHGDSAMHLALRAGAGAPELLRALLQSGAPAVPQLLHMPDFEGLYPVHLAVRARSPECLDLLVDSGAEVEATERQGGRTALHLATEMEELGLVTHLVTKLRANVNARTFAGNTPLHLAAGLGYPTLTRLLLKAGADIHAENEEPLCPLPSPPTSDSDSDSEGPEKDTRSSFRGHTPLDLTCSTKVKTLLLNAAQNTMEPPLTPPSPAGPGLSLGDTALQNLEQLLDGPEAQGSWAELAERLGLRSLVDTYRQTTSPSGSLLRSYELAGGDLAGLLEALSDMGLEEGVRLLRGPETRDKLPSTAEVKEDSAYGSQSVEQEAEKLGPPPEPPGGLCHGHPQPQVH
T1 sequence (Q04206 whole entry, looked up): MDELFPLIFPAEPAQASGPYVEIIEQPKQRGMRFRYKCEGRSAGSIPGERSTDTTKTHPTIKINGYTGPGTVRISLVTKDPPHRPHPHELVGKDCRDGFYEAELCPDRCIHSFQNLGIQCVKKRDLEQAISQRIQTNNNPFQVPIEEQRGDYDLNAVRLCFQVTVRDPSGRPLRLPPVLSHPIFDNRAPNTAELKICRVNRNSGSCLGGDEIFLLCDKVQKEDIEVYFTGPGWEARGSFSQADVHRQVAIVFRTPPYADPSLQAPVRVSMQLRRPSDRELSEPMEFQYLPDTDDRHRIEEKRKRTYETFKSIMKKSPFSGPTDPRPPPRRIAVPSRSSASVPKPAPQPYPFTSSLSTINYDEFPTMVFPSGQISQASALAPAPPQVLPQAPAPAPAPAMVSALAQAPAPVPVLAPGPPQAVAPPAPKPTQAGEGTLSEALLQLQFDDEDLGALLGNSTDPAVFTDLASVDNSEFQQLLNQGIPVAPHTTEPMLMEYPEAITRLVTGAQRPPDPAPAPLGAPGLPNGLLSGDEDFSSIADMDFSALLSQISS

[2] = target: T1, Nuclear factor NF-kappa-B complex (Homo sapiens); experiment: Inhibition of doxorubicin-stimulated NF-kappaB signaling (unknown origin) expressed in MDA-MB-231 cells at 5 uM incubated for 16 hrs by luciferase reporter gene assay; format: cell-based
[3] = target: T1, Nuclear factor NF-kappa-B complex (Homo sapiens); experiment: Inhibition of NF-kappaB signaling in human MDA-MB-231 cells assessed as reduction in PMA-stimulated MMP9 mRNA expression at 5 uM pre-incubated for 8 hrs before PMA stimulation for 4 hrs by quantitative RT-PCR method; format: cell-based
[4] = target: T1, Nuclear factor NF-kappa-B complex (Homo sapiens); experiment: Inhibition of NF-kappaB signaling in human MDA-MB-231 cells assessed as reduction in PMA-stimulated COX2 mRNA expression at 5 uM pre-incubated for 8 hrs before PMA stimulation for 4 hrs by quantitative RT-PCR method; format: cell-based
[5] = target: T1, Nuclear factor NF-kappa-B complex (Homo sapiens); experiment: Inhibition of basal NF-kappaB signaling in human MDA-MB-231 cells assessed as reduction in MMP9 mRNA expression at 25 uM by quantitative RT-PCR method relative to untreated control; format: cell-based
[6] = target: T1, Nuclear factor NF-kappa-B complex (Homo sapiens); experiment: Inhibition of NF-kappaB signaling in human MDA-MB-231 cells assessed as reduction in PMA-stimulated MMP9 mRNA expression at 25 uM pre-incubated before PMA stimulation by quantitative RT-PCR method relative to untreated control; format: cell-based
[7] = target: T1, Nuclear factor NF-kappa-B complex (Homo sapiens); experiment: Inhibition of basal NF-kappaB signaling in human MDA-MB-231 cells assessed as reduction in COX2 mRNA expression at 25 uM by quantitative RT-PCR method relative to untreated control; format: cell-based
[8] = target: T1, Nuclear factor NF-kappa-B complex (Homo sapiens); experiment: Inhibition of NF-kappaB signaling in human MDA-MB-231 cells assessed as reduction in PMA-stimulated COX2 mRNA expression at 25 uM pre-incubated before PMA stimulation by quantitative RT-PCR method relative to untreated control; format: cell-based
MDA-MB-231 [9] = experiment: Induction apoptosis in PMA-stimulated human MDA-MB-231 cells assessed as mitochondrial disruption at 10 uM after 48 hrs by JC1 staining based fluorescence assay; format: functional, cell-based
[10] = target: T1, Nuclear factor NF-kappa-B complex (Homo sapiens); experiment: Effect on NF-kappaB signaling in human MDA-MB-231 cells assessed as increase in MMP9 mRNA expression at 25 uM by quantitative RT-PCR method; format: cell-based
[11] = target: T1, Nuclear factor NF-kappa-B complex (Homo sapiens); experiment: Effect on NF-kappaB signaling in human MDA-MB-231 cells assessed as increase in COX2 mRNA expression at 25 uM by quantitative RT-PCR method; format: cell-based
MDA-MB-231 [12] = experiment: Inhibition of cell migration of PMA-stimulated human MDA-MB-231 cells; format: functional, cell-based
MDA-MB-231 [13] = experiment: Induction apoptosis in PMA-stimulated human MDA-MB-231 cells assessed as mitochondrial disruption 3.125 to 25 uM uM after 48 hrs by JC1 staining based fluorescence assay; format: functional, cell-based
[14] = target: T1, Nuclear factor NF-kappa-B complex (Homo sapiens); experiment: Inhibition of basal NF-kappaB signaling in human MDA-MB-231 cells assessed as reduction in MMP9 mRNA expression at 3.125 uM by quantitative RT-PCR method relative to untreated control; format: cell-based
[15] = target: T1, Nuclear factor NF-kappa-B complex (Homo sapiens); experiment: Inhibition of basal NF-kappaB signaling in human MDA-MB-231 cells assessed as reduction in MMP9 mRNA expression at 6.25 uM by quantitative RT-PCR method relative to untreated control; format: cell-based
[16] = target: T1, Nuclear factor NF-kappa-B complex (Homo sapiens); experiment: Inhibition of basal NF-kappaB signaling in human MDA-MB-231 cells assessed as reduction in MMP9 mRNA expression at 12.5 uM by quantitative RT-PCR method relative to untreated control; format: cell-based
[17] = target: T1, Nuclear factor NF-kappa-B complex (Homo sapiens); experiment: Inhibition of basal NF-kappaB signaling in human MDA-MB-231 cells assessed as reduction in MMP9 mRNA expression at 50 uM by quantitative RT-PCR method relative to untreated control; format: cell-based
[18] = target: T1, Nuclear factor NF-kappa-B complex (Homo sapiens); experiment: Inhibition of NF-kappaB signaling in human MDA-MB-231 cells assessed as reduction in PMA-stimulated MMP9 mRNA expression at 12.5 uM pre-incubated before PMA stimulation by quantitative RT-PCR method relative to untreated control; format: cell-based
[19] = target: T1, Nuclear factor NF-kappa-B complex (Homo sapiens); experiment: Inhibition of NF-kappaB signaling in human MDA-MB-231 cells assessed as reduction in PMA-stimulated MMP9 mRNA expression at 50 uM pre-incubated before PMA stimulation by quantitative RT-PCR method relative to untreated control; format: cell-based
[20] = target: T1, Nuclear factor NF-kappa-B complex (Homo sapiens); experiment: Inhibition of basal NF-kappaB signaling in human MDA-MB-231 cells assessed as reduction in MMP9 mRNA expression at 12.5 uM by quantitative RT-PCR method; format: cell-based
MDA-MB-231 [21] = experiment: Cytotoxicity against non-stimulated human MDA-MB-231 cells assessed as induction of cell death up to 25 uM after 48 hrs by MTT assay; format: functional
MDA-MB-231 [22] = experiment: Cytotoxicity against PMA-stimulated human MDA-MB-231 cells assessed as induction of cell death up to 25 uM after 48 hrs by MTT assay; format: functional
MDA-MB-231 [23] = experiment: Cytotoxicity against non-stimulated human MDA-MB-231 cells assessed as induction of cell death at 50 uM after 48 hrs by MTT assay; format: functional
MDA-MB-231 [24] = experiment: Cytotoxicity against PMA-stimulated human MDA-MB-231 cells assessed as induction of cell death at 50 uM after 48 hrs by MTT assay; format: functional
MDA-MB-231 [25] = experiment: Induction of cell cycle arrest in PMA-stimulated human MDA-MB-231 cells assessed as accumulation at G2/M phase at 25 uM after 48 hrs by propidium iodide staining based flow cytometry; format: functional
MDA-MB-231 [26] = experiment: Induction of cell cycle arrest in un-stimulated human MDA-MB-231 cells assessed as accumulation at G2/M phase at 25 uM after 48 hrs by propidium iodide staining based flow cytometry; format: functional
[27] = Toxicity against human MDA-MB-231 cells after 48 hrs by MTT assay; format: cell-based; details: read-out: MNCC
MDA-MB-231 [28] = experiment: Induction of cell cycle arrest in PMA-stimulated human MDA-MB-231 cells assessed as accumulation at G1 phase at 25 uM after 48 hrs by propidium iodide staining based flow cytometry (reference value: 52%); format: functional
MDA-MB-231 [29] = experiment: Induction of cell cycle arrest in PMA-stimulated human MDA-MB-231 cells assessed as accumulation at S phase at 25 uM after 48 hrs by propidium iodide staining based flow cytometry (reference value: 29%); format: functional
MDA-MB-231 [30] = experiment: Induction of cell cycle arrest in PMA-stimulated human MDA-MB-231 cells assessed as accumulation at G2/M phase at 25 uM after 48 hrs by propidium iodide staining based flow cytometry (reference value: 19%); format: functional
MDA-MB-231 [31] = experiment: Inhibition of cell invasion of PMA-stimulated human MDA-MB-231 cells; format: functional, cell-based
MDA-MB-231 [32] = experiment: Induction apoptosis in PMA-stimulated human MDA-MB-231 cells assessed as mitochondrial disruption up to 50 uM uM after 48 hrs by JC1 staining based fluorescence assay; format: functional, cell-based
[33] = target: T1, Nuclear factor NF-kappa-B complex (Homo sapiens); experiment: Inhibition of NF-kappaB signaling in human MDA-MB-231 cells assessed as reduction in PMA-stimulated MMP9 protein expression at 6.25 to 50 uM pre-incubated before PMA stimulation by SDS-PAGE gelatin zymography; format: cell-based

Compound: C=C1C(=O)O[C@@H]2C3O[C@]3(C)CC/C=C(\C)CC[C@@H]12 (stereo partly drawn)
- inhibition [1]: Active
- inhibition [2]: Active
- inhibition [3]: Active
- inhibition [4]: Active

Compound: COc1ccc(-c2cc(=O)c3c(O)cc(O)cc3o2)cc1
- inhibition [5]: Active
- inhibition [6]: Active
- inhibition [7]: Active
- inhibition [8]: Active

Compound: COc1ccc(-c2cc(=O)c3c(O)cc(O)cc3o2)cc1O
- inhibition [5]: Active
- inhibition [6]: Active
- inhibition [7]: Active
- inhibition [8]: Active

Compound: COc1cccc2c1C(=O)c1c(O)c3c(c(O)c1C2=O)C[C@@](O)(C(=O)CO)C[C@@H]3O[C@H]1C[C@H](N)[C@H](O)[C@H](C)O1
- Activity (MDA-MB-231 [9]): Active

Compound: O=c1c(O)c(-c2ccc(O)c(O)c2)oc2c(O)c(O)cc(O)c12
- Activity [10]: Active
- Activity [11]: Active

Compound: O=c1c(O)c(-c2ccc(O)c(O)c2)oc2cc(O)c(O)c(O)c12
- Activity [10]: Active
- Activity [11]: Active

Compound: O=c1c(O)c(-c2ccc(O)c(O)c2)oc2cc(O)cc(O)c12
- inhibition [5]: Active
- inhibition [6]: Active
- inhibition [7]: Active
- inhibition [8]: Active
- inhibition (MDA-MB-231 [12]): inactive
- Activity (MDA-MB-231 [13]): Active

Compound: COc1cc(-c2cc(=O)c3c(O)cc(O)cc3o2)ccc1O [CHRYSOERIOL]
- fold change (FC) [14]: 0.708
- fold change (FC) [15]: 0.361
- fold change (FC) [16]: 0.208
- fold change (FC) [5]: 0.211
- fold change (FC) [17]: 0.204
- fold change (FC) [18]: 3.67
- fold change (FC) [6]: 2.11
- fold change (FC) [19]: 1.33
- inhibition [7]: Active
- inhibition [8]: Active
- inhibition [20]: 80%
- Activity (MDA-MB-231 [21]): <10%
- Activity (MDA-MB-231 [22]): <10%
- Activity (MDA-MB-231 [23]): 10%
- Activity (MDA-MB-231 [24]): 10%
- Activity (MDA-MB-231 [25]): Dose-dependent effect
- Activity (MDA-MB-231 [26]): Dose-dependent effect
- MNTC at 48 h [27]: 25 µM
- Activity (MDA-MB-231 [28]): 34%
- Activity (MDA-MB-231 [29]): 27%
- Activity (MDA-MB-231 [30]): 39%
- inhibition (MDA-MB-231 [12]): Dose-dependent effect
- inhibition (MDA-MB-231 [31]): Dose-dependent effect
- Activity (MDA-MB-231 [32]): inactive
- inhibition [33]: Active
